pEC50: −log10 of the molar value.

For one assay, the target named is T1, Estrogen receptor (Homo sapiens, UniProt P03372).
T1 sequence (P03372 whole entry): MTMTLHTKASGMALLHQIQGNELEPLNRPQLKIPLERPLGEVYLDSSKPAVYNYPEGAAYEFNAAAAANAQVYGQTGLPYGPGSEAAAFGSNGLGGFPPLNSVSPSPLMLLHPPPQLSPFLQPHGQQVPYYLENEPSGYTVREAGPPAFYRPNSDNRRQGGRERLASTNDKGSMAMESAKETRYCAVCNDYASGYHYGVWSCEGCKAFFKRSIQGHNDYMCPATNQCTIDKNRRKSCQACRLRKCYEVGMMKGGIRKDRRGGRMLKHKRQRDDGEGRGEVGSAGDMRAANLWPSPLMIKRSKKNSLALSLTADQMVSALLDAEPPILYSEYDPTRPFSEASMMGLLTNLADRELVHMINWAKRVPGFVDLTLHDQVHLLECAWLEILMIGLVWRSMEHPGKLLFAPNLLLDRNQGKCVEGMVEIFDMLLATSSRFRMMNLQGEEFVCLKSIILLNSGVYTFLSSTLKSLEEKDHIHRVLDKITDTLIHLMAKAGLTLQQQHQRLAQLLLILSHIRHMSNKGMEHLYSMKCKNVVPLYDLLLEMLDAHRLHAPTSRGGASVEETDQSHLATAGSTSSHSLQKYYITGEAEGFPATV
The experiment in a line: ERalpha binding competitors, concentration series, dose response, cell-based, Cos7 ERalpha-GFP, flow cytometry (AID 1223).
Conditions: not given
(Flow cytometry measures light scatter and fluorescence of single cells or particles in a stream.)
`Brc1cc2c(cc1[C@@H]1Nc3ccccc3[C@@H]3C=CC[C@@H]31)OCO2`: the pEC50 – broadly, the negative decadic logarithm of the EC50, by convention in mol/L – is 6.11.
On the same count and under the same terms, under `CC(=O)c1ccc2c(c1)C1C=CCC1C(c1cccc([N+](=O)[O-])c1)N2` (stereo not given) [1-[4-(3-nitrophenyl)-3a,4,5,9b-tetrahydro-3H-cyclopenta[c]quinolin-8-yl]ethanone] stands less than 5.00.
On the same count and under the same terms, the same measure for `COc1ccccc1N1CCN(C(=O)c2ccc3nc(-c4ccco4)c(-c4ccco4)nc3c2)CC1` [2,3-di-2-furyl-6-{[4-(2-methoxyphenyl)piperazin-1-yl]carbonyl}quinoxaline]: 7.81.
For `O=C(Nc1cc(C(F)(F)F)ccc1N1CCOCC1)C1Cc2ccccc2CN1C(=O)c1ccco1` (stereo not given) [2-(2-furoyl)-N-[2-morpholino-5-(trifluoromethyl)phenyl]-3,4-dihydro-1H-isoquinoline-3-carboxamide], the pEC50 was 6.43.
The compound `Cc1cc(C)cc(OCC(=O)Nc2ccc(N3CCCC3)cc2)c1` [2-(3,5-dimethylphenoxy)-N-(4-pyrrolidin-1-ylphenyl)acetamide] had a pEC50 of less than 5.00.
Compound `COc1nc(-c2ccc(Cl)cc2)ccc1-c1noc(-c2ccco2)n1` [3-[6-(4-chlorophenyl)-2-methoxy-3-pyridinyl]-5-(2-furanyl)-1,2,4-oxadiazole] showed a pEC50 of 7.31.
Still for that read-out and setting: under `CC(=O)Oc1ccc(C2Nc3c(C(=O)O)ccc([N+](=O)[O-])c3C3C=CCC32)cc1` (stereo not given) [4-(4-acetoxyphenyl)-9-nitro-3a,4,5,9b-tetrahydro-3H-cyclopenta[c]quinoline-6-carboxylic acid] stands less than 5.00; under `CCn1c(=NC(=O)c2ccc(-n3c(O)ccc3O)cc2)sc2c(OC)ccc(OC)c21` [4-[2,5-bis(oxidanylidene)pyrrolidin-1-yl]-N-(3-ethyl-4,7-dimethoxy-1,3-benzothiazol-2-ylidene)benzamide], less than 5.00.
`O=C(COC(=O)CCC(=O)c1cccs1)NCc1ccco1` [4-keto-4-(2-thienyl)butyric acid [2-(2-furfurylamino)-2-keto-ethyl] ester]: the pEC50 was 8.37.
For the compound `Cc1cc(C)c2c(c1)[C@@H]1C=CC[C@@H]1[C@H](c1ccc(S(=O)(=O)N3CCOCC3)cc1)N2` [(3aS,4R,9bR)-6,8-dimethyl-4-[4-(morpholin-4-ylsulfonyl)phenyl]-3a,4,5,9b-tetrahydro-3H-cyclopenta[c]quinoline], the negative-log EC50 (pEC50) is 7.35.
In turn, `C[C@]12CC[C@@H]3c4ccc(O)cc4[C@@H](O)C[C@H]3[C@@H]1CC[C@@H]2O` [(6S,8R,9S,13S,14S,17S)-13-methyl-6,7,8,9,11,12,14,15,16,17-decahydrocyclopenta[a]phenanthrene-3,6,17-triol] showed a pEC50 of 7.44. This pEC50 and that of the compound before are within 0.2 log units of each other.
Compound `COc1ccc(C(=O)NN=C(C)c2ccc3c(c2)C2C=CCC2C(c2ccccc2)N3)cc1` (stereo not given) [SMR000176871] had a pEC50 of 5.84.

Still in this assay, the particulars now being: inactive by the depositor's call.
`COc1cccc(NS(=O)(=O)c2ccc3c(c2)C2C=CCC2C(c2ccc(C(=O)O)cc2)N3)c1` (stereo not given) showed a pEC50 of 5.41.
Same read-out and setting: under `COc1ccc(NS(=O)(=O)c2ccc3c(c2)[C@H]2C=CC[C@H]2[C@@H](c2ccc(C(=O)O)cc2)N3)cc1` stands 5.44; under `O=C(OCC(=O)N1CCN(C(=O)c2ccco2)CC1)c1cc(-c2ccco2)nc2ccccc12` [2-(2-furanyl)-4-quinolinecarboxylic acid [2-[4-[2-furanyl(oxo)methyl]-1-piperazinyl]-2-oxoethyl] ester], 7.47; under `Cc1nnc(SCC(=O)NC(=O)NCc2ccco2)n1Cc1ccccc1` [2-[(4-benzyl-5-methyl-1,2,4-triazol-3-yl)sulfanyl]-N-(furan-2-ylmethylcarbamoyl)acetamide], 7.35.
Regarding `O=C(O)c1cc(Cl)c2c(c1)[C@@H]1C=CC[C@@H]1[C@H](c1ccc(S(=O)(=O)N3CCOCC3)cc1)N2` [(3aS,4R,9bR)-6-chloranyl-4-(4-morpholin-4-ylsulfonylphenyl)-3a,4,5,9b-tetrahydro-3H-cyclopenta[c]quinoline-8-carboxylic acid], the negative-log EC50 (pEC50) was 6.00.
Same read-out and setting: under `Cc1cc(C(=O)Nc2sc3c(c2C#N)CCC3)no1` [MLS000066325] stands 8.50.
In turn, `Cn1ccnc1SCC(=O)Nc1ccc2nc(SCC(=O)NC3CC3)sc2c1` [MLS000085771] had a pEC50 of 7.61. Against the preceding compound, the pEC50 is 0.89 log units lower.
On the same count and under the same terms, under `COc1ccc(CNC(=O)c2cc(-c3cccs3)on2)cc1` [MLS000087249] stands 8.01.

The values are drawn from BindingDB's records for doi:10.7270/Q2HQ3XB9 (Nmmlsc, 2008).
